# Test results taken from patent US12239720B2, “Compositions for use in lysis of selective cancer cells” (ONCOLYZE, INC., priority 2018, dated 2025).
# Test system: cancer cells
# Assay: Tumor cell necrosis of cancer cells versus normal cells (general statement)
# Assay type: cell-based
# Conditions: cancer cells vs normal cells; statement in the description, no data shown
# Description: PNC-27 or PNC-28 is incubated with 6×10^6 cancer cells, for example, Mia-PaCa-2 cells, for 5 days at concentrations ranging from 0.001-750 μM. At different timepoints following treatment the cells are assessed for signs of necrosis, for example, membrane blebbing and disruption and formation of cell clumps coalescing into aggregates of cellular debris. Percent cell death is determined by measuring trypan blue dye uptake. Cancer cells are also treated with the negative control peptide PNC-29 and, separately, a peptide having only the p53 derived portion of PNC-27 or PNC-28 that cannot traverse the cell membrane due to the lack of the MRP peptide, administered at the same concentration as the test peptide. The effect of these control peptides on cellular growth, morphology and viability is determined.
# As an additional control, PNC-27 or PNC-28 is combined with untransformed BMRPA1 acinar cells and with the untransformed breast epithelial cell line, MCF-10-2A at a concentration ranging from 0.001-750 μM to determine if the peptide is lethal to normal cell growth.
row,Sequence,tumor cell necrosis
1,PPLSQETFSDLWKLLKKWKMRRNQFWVKVQRG [PNC-27],"induce tumor cell necrosis of cancer cells, but not normal cells"
2,"ETFSDLWKLLKKWKMRRNQFWVKVQRG [PNC-28, p53 aa17-26-MRP]","induce tumor cell necrosis of cancer cells, but not normal cells"
